Laboratory results as given in ChEMBL document CHEMBL5247634, “Design, synthesis and anticancer evaluation of selective 2,4-disubstituted pyrimidine CDK9 inhibitors” (Eur J Med Chem, 2022).
The source made the active and inactive calls. The calls are words filed in the database; no cut-off is given here.

What was measured:
Homo sapiens = organism: Homo sapiens; experiment: Selectivity index, ratio of IC50 for CDK2/cyclin A (unknown origin) to IC50 for CDK9/cyclin T1 (unknown origin)
PANC-1 [1] = experiment: Induction of apoptosis in human PANC-1 cells assessed as late apoptotic cells at 0.5 uM incubated for 48 hrs by Annexin-V-FITC/PI staining based flow cytometric analysis (reference value: 0.22%); assay type: functional
CDK9/cyclin T1 = CDK9/cyclin T1 (Homo sapiens, UniProt P50750); experiment: Inhibition of CDK9/cyclin T1 (unknown origin) using as PDKtide substrate incubated for 1 hr in presence of ATP by ADP-glo luminescent assay; assay type: protein-complex assay
PANC-1 [2] = experiment: Induction of cell cycle arrest in human PANC-1 cells assessed as accumulation at G2M phase at 0.1 uM incubated for 24 hrs by propidium iodide staining based flow cytometric analysis (reference value: 2.16%); assay type: functional
[3] = Toxicity in BALB/c nude mouse xenografted with human PANC-1 cells assessed as mortality at 5 to 20 mg/kg, ip administered for every other day for 4 weeks; assay type: organism-based; conditions: in vivo, 672 h, dose 5-20 mg/kg
PANC-1 [4] = experiment: Induction of cell cycle arrest in human PANC-1 cells assessed as accumulation at G2M phase at 2.5 uM incubated for 24 hrs by propidium iodide staining based flow cytometric analysis (reference value: 2.16%); assay type: functional
PANC-1 [5] = experiment: Induction of apoptosis in human PANC-1 cells assessed as early apoptotic cells at 0.1 uM incubated for 48 hrs by Annexin-V-FITC/PI staining based flow cytometric analysis (reference value: 2.21%); assay type: functional
PANC-1 [6] = experiment: Induction of apoptosis in human PANC-1 cells assessed as viable cells at 0.5 uM incubated for 48 hrs by Annexin-V-FITC/PI staining based flow cytometric analysis (reference value: 97.0%); assay type: functional; conditions: read-out: Activity
A-431 = experiment: Antiproliferative activity against human A-431 cells assessed as cell growth inhibition measured after 72 hrs by MTT assay; assay type: functional, cell-based; conditions: A-431, 72 h
PANC-1 [7] = experiment: Induction of apoptosis in human PANC-1 cells assessed as viable cells at 0.1 uM incubated for 48 hrs by Annexin-V-FITC/PI staining based flow cytometric analysis (reference value: 97.0%); assay type: functional; conditions: read-out: Activity
PANC-1 [8] = experiment: Induction of cell cycle arrest in human PANC-1 cells assessed as accumulation at G1 phase at 0.5 uM incubated for 24 hrs by propidium iodide staining based flow cytometric analysis (reference value: 80.36%); assay type: functional
PANC-1 [9] = experiment: Induction of apoptosis in human PANC-1 cells assessed as viable cells at 2.5 uM incubated for 48 hrs by Annexin-V-FITC/PI staining based flow cytometric analysis (reference value: 97.0%); assay type: functional; conditions: read-out: Activity
A549 = experiment: Antiproliferative activity against human A549 cells assessed as cell growth inhibition measured after 72 hrs by MTT assay; assay type: functional, cell-based; conditions: A549, 72 h
PANC-1 [10] = experiment: Induction of cell cycle arrest in human PANC-1 cells assessed as accumulation at G1 phase at 2.5 uM incubated for 24 hrs by propidium iodide staining based flow cytometric analysis (reference value: 80.36%); assay type: functional
PANC-1 [11] = experiment: Antitumor activity against human PANC-1 cells xenografted in BALB/c nude mouse assessed as reduction in tumor growth rate at 10 mg/kg, ip administered for every other day for 4 weeks relative to control; assay type: functional; set-up: scale not given: the % may be the effect or the level left
[12] = Downregulation of RNAPII phosphorylation level in human PANC-1 cells at 2.5 uM incubated for 24 hrs by Western blot analysis; assay type: functional
PANC-1 [13] = experiment: Inhibition of CDK9 expression in human PANC-1 cells incubated for 24 hrs by Western blot analysis; assay type: functional, cell-based; conditions: dose 0.1-2.5 µM
NCI-H1975 = experiment: Antiproliferative activity against human NCI-H1975 cells assessed as cell growth inhibition measured after 72 hrs by MTT assay; assay type: functional, cell-based; conditions: NCI-H1975, 72 h
PANC-1 [14] = experiment: Induction of cell cycle arrest in human PANC-1 cells assessed as accumulation at S phase at 0.1 uM incubated for 24 hrs by propidium iodide staining based flow cytometric analysis (reference value: 17.48%); assay type: functional
L02 = experiment: Antiproliferative activity against human L02 cells assessed as cell growth inhibition measured after 72 hrs by MTT assay; assay type: functional, cell-based; conditions: L02, 72 h
PANC-1 [15] = experiment: Induction of cell cycle arrest in human PANC-1 cells assessed as accumulation at G1 phase at 0.1 uM incubated for 24 hrs by propidium iodide staining based flow cytometric analysis (reference value: 80.36%); assay type: functional
HCT-116 = experiment: Antiproliferative activity against human HCT-116 cells assessed as cell growth inhibition measured after 72 hrs by MTT assay; assay type: functional, cell-based; conditions: HCT-116, 72 h
[16] = Toxicity in BALB/c nude mouse xenografted with human PANC-1 cells assessed as no tissue lesions and necrosis at 5 to 20 mg/kg, ip administered for every other day for 4 weeks; assay type: organism-based; conditions: in vivo, 672 h, dose 5-20 mg/kg
PANC-1 [17] = experiment: Induction of cell cycle arrest in human PANC-1 cells assessed as accumulation at S phase at 2.5 uM incubated for 24 hrs by propidium iodide staining based flow cytometric analysis (reference value: 17.48%); assay type: functional
PANC-1 [18] = experiment: Antiproliferative activity against human PANC-1 cells assessed as cell growth inhibition measured after 72 hrs by MTT assay; assay type: functional, cell-based; conditions: PANC-1, 72 h
PANC-1 [19] = experiment: Induction of apoptosis in human PANC-1 cells assessed as necrotic cells at 0.1 uM incubated for 48 hrs by Annexin-V-FITC/PI staining based flow cytometric analysis (reference value: 0.59%); assay type: functional
PANC-1 [20] = experiment: Induction of apoptosis in human PANC-1 cells assessed as early apoptotic cells at 2.5 uM incubated for 48 hrs by Annexin-V-FITC/PI staining based flow cytometric analysis (reference value: 2.21%); assay type: functional
PANC-1 [21] = experiment: Induction of cell cycle arrest in human PANC-1 cells assessed as accumulation at S phase at 0.5 uM incubated for 24 hrs by propidium iodide staining based flow cytometric analysis (reference value: 17.48%); assay type: functional
PANC-1 [22] = experiment: Induction of apoptosis in human PANC-1 cells assessed as late apoptotic cells at 0.1 uM incubated for 48 hrs by Annexin-V-FITC/PI staining based flow cytometric analysis (reference value: 0.22%); assay type: functional
PANC-1 [23] = experiment: Antitumor activity against human PANC-1 cells xenografted in BALB/c nude mouse assessed as reduction in tumor growth rate at 20 mg/kg, ip administered for every other day for 4 weeks relative to control; assay type: functional; set-up: scale not given: the % may be the effect or the level left
PANC-1 [24] = experiment: Downregulation of RNAPII phosphorylation level in human PANC-1 cells at 0.5 uM incubated for 24 hrs by Western blot analysis; assay type: functional, cell-based
PANC-1 [25] = experiment: Induction of apoptosis in human PANC-1 cells assessed as necrotic cells at 2.5 uM incubated for 48 hrs by Annexin-V-FITC/PI staining based flow cytometric analysis (reference value: 0.59%); assay type: functional
[26] = Toxicity in BALB/c nude mouse assessed as no obvious change in body weight at 5 to 20 mg/kg, ip administered for every other day for 4 weeks; assay type: organism-based; conditions: in vivo, 672 h, dose 5-20 mg/kg
PANC-1 [27] = experiment: Induction of apoptosis in human PANC-1 cells assessed as late apoptotic cells at 2.5 uM incubated for 48 hrs by Annexin-V-FITC/PI staining based flow cytometric analysis (reference value: 0.22%); assay type: functional
[28] = target: Cyclin-dependent kinase 2/cyclin A (Homo sapiens, UniProt P24941); experiment: Inhibition of CDK2/cyclin A (unknown origin) incubated for 1 hr in presence of ATP by ADP-glo luminescent assay; assay type: protein-complex assay
PANC-1 [29] = experiment: Induction of cell cycle arrest in human PANC-1 cells assessed as accumulation at G2M phase at 0.5 uM incubated for 24 hrs by propidium iodide staining based flow cytometric analysis (reference value: 2.16%); assay type: functional
PANC-1 [30] = experiment: Induction of apoptosis in human PANC-1 cells assessed as early apoptotic cells at 0.5 uM incubated for 48 hrs by Annexin-V-FITC/PI staining based flow cytometric analysis (reference value: 2.21%); assay type: functional
PANC-1 [31] = experiment: Antitumor activity against human PANC-1 cells xenografted in BALB/c nude mouse assessed as reduction in tumor growth rate at […], ip administered for every other day for 4 weeks relative to control; assay type: functional; set-up: scale not given: the % may be the effect or the level left
PANC-1 [32] = experiment: Induction of apoptosis in human PANC-1 cells assessed as necrotic cells at 0.5 uM incubated for 48 hrs by Annexin-V-FITC/PI staining based flow cytometric analysis (reference value: 0.59%); assay type: functional

CDK9/cyclin T1, sequence (O60563 whole entry): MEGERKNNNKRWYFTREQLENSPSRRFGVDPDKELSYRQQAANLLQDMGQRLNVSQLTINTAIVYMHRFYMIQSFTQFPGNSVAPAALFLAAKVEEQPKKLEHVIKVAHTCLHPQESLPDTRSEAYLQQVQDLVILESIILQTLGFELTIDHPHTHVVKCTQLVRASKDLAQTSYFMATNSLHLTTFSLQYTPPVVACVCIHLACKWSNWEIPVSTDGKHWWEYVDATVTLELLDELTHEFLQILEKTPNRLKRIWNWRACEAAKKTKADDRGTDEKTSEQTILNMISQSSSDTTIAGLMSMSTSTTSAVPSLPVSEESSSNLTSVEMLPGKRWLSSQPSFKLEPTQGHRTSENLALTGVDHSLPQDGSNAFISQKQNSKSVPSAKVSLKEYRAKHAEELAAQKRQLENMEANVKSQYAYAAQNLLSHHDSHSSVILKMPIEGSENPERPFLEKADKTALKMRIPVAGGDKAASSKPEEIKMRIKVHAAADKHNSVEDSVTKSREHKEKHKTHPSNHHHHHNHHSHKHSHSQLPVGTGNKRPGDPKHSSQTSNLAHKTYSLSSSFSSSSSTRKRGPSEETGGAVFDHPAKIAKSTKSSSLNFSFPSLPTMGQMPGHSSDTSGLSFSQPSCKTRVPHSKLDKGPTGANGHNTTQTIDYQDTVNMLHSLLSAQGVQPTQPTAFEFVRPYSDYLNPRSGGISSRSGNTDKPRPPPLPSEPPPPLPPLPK
CDK9/cyclin T1, sequence (P50750 whole entry): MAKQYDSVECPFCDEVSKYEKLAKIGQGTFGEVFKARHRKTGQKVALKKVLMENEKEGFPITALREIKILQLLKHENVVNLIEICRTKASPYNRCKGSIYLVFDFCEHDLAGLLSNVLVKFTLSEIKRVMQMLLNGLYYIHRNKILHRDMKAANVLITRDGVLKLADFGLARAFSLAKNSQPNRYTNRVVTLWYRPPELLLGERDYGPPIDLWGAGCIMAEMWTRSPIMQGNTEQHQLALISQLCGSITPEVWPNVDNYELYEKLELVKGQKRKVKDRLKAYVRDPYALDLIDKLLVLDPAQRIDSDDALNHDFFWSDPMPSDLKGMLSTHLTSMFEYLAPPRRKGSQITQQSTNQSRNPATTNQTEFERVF

## CN(C)CCNC(=O)c1ccc(Nc2nccc(-c3ccc(F)cc3OCc3ccccc3)n2)cc1
Homo sapiens
  Selectivity Index: 84.3
PANC-1 [1]
  Activity: 45.7%
CDK9/cyclin T1
  IC50: 10.4 nM
PANC-1 [2]
  Activity: 21.83%
[3]
  Activity: Non-Toxic
PANC-1 [4]
  Activity: 34.26%
PANC-1 [5]
  Activity: 23.7%
PANC-1 [6]
  viability at 0.5 µM: 40.1%
A-431
  IC50: 100 nM
PANC-1 [7]
  viability at 0.1 µM: 52.4%
PANC-1 [8]
  Activity: 53.9%
PANC-1 [9]
  viability at 2.5 µM: 29.8%
A549
  IC50: 660 nM
PANC-1 [10]
  Activity: 46.01%
PANC-1 [11]
  Activity: 32.6%
[12]
  inhibition at 2.5 µM: 100%
PANC-1 [13]
  inhibition: Dose-Dependent Effect
NCI-H1975
  IC50: 430 nM
PANC-1 [14]
  Activity: 22.92%
L02
  IC50: 1430 nM
PANC-1 [15]
  Activity: 55.25%
HCT-116
  IC50: 90 nM
[16]
  Activity: Non-Toxic
PANC-1 [17]
  Activity: 19.73%
PANC-1 [18]
  IC50: 80 nM
PANC-1 [19]
  Activity: 4.07%
PANC-1 [20]
  Activity: 8.44%
PANC-1 [21]
  Activity: 20.25%
PANC-1 [22]
  Activity: 19.9%
PANC-1 [23]
  Activity: 54.2%
PANC-1 [24]
  Activity: Active
PANC-1 [25]
  Activity: 4.35%
[26]
  Activity: Non-Toxic
PANC-1 [27]
  Activity: 57.4%
[28]
  IC50: 876 nM
PANC-1 [29]
  Activity: 25.85%
PANC-1 [30]
  Activity: 8.41%
PANC-1 [31]
  Activity: 6.2%
PANC-1 [32]
  Activity: 5.78%
